Values after ≈ are worked out from the molar mass of the structure shown. Active and inactive are the calls of the source. The rule behind the calls is not given here.
Columns and labels:
[1] = Myocardial depressant activity in guinea pig atrial muscle assessed as maximal non-depressant dose by measuring contractility; format: ADME, tissue-based, Cavia porcellus, Muscle tissue
[2] = Inhibition of beta-adrenergic receptor in isoproterenol-stimulated guinea pig atrial muscle; format: tissue-based, Cavia porcellus, Cardiac atrium
Adrenergic receptor beta = Adrenergic receptor beta (Rattus norvegicus, UniProt P18090+P10608+P26255); test: Inhibition of beta-adrenergic receptor in rat portal vein
Felis catus = organism: Felis catus; test: Inhibition of beta-adrenergic receptor in cat papillary muscle; format: tissue-based
[3] = Myocardial depressant activity in cat papillary muscle assessed as decrease in contractile force at >0.31 mg/ml; format: ADME, tissue-based, Felis catus, Muscle tissue
[4] = Retention time of the compound; format: physicochemical
[5] = Myocardial depressant activity in guinea pig atrial muscle assessed as decrease in contractility at 1.0 mg/ml; format: ADME, tissue-based, Cavia porcellus, Muscle tissue
[6] = Myocardial depressant activity in guinea pig atrial muscle assessed as decrease in contractility at 0.31 x 10^-3 to 0.31 mg/ml; format: ADME, tissue-based, Cavia porcellus, Muscle tissue

| Activity [1] [µg/mL] | IC50 [2] | SMILES | other results |
| --- | --- | --- | --- |
| > 1000 | 31 µg/mL (≈ 100 µM) | CCN(CC)CC(O)COc1cccc2c1C[C@H](O)[C@H](O)C2 (stereo not given in full) |  |
| 3.1 | 5.9 µg/mL | COc1ccc(CCNCC(O)COc2cc(O)c(O)c3c2CCCC3)cc1OC.Cl (stereo not given) |  |
| 1 | 0.01 µg/mL (≈ 0.038 µM) | CC(C)NCC(O)COc1cccc2c1CCCC2 (stereo not given) |  |
| 1 |  | CC(C)(C)CC(C)(C)NCC(O)COc1cccc2c1C[C@H](O)[C@H](O)C2 (stereo not given in full) | IC50 (Adrenergic receptor beta): 0.78 µg/mL (≈ 2.13 µM) |
| 31 |  | CC(C)(C)N(CCNCC(O)COc1cccc2c1C[C@H](O)[C@H](O)C2)Cc1ccccc1 (stereo not given in full) | IC50 (Adrenergic receptor beta): > 8 µg/mL |
| 100 | 0.3 µg/mL (≈ 0.889 µM) | CC(C)(C)NCC(O)COc1ccc(O)c2c1C[C@@H]1OCO[C@@H]1C2 (stereo not given in full) |  |
| 10 | 0.001 µg/mL (≈ 0.00341 µM) | CC(C)(C)NCC(O)COc1cccc2c1CCC(O)C2 (stereo not given) |  |
| 0.31 |  | CC(C)NCC(O)COc1cccc2ccccc12 (stereo not given) [PROPRANOLOL] |  |
| 100 |  | CO[C@H]1Cc2cccc(OCC(O)CNC(C)(C)C)c2C[C@H]1OC.Cl (relative stereo) | IC50 (Adrenergic receptor beta): 0.051 µg/mL |
| 100 | 6 µg/mL (≈ 19.4 µM) | CC(C)(C)NCC(O)COc1ccc2c(c1)C[C@@H](O)[C@H](O)C2 (relative stereo) |  |
| 31 | 0.05 µg/mL | CO[C@@H]1c2cccc(OCC(O)CNC(C)C)c2CC[C@H]1O.O=C(O)C(=O)O (relative stereo) |  |
|  |  | CC(C)(C)NCC(O)COc1ccc(I)c2c1C[C@H](O)[C@H](O)C2 (relative stereo) | inhibition (Felis catus): Active; Activity [3]: Toxic |
| 1 | 0.0025 µg/mL (≈ 0.00852 µM) | CC(C)(C)NCC(O)COc1cccc2c1CC(O)CC2 (stereo not given) |  |
| 31 | 0.15 µg/mL | Cl.NCC(O)COc1ccc(O)c2c1CCCC2 (stereo not given) |  |
| 3.1 |  | CC(C)(Cc1ccccc1)NCC(O)COc1cccc2c1C[C@H](O)[C@H](O)C2 (stereo not given in full) | IC50 (Adrenergic receptor beta): 0.045 µg/mL (≈ 0.117 µM) |
| 3.1 | 0.04 µg/mL (≈ 0.124 µM) | CC(C)(C)NCC(O)COc1cccc2c1C[C@@H]1OCO[C@@H]1C2 (relative stereo) |  |
| 0.3 |  | CC(C)(C)NCC(O)COc1cccc2c1CC=CC2 (stereo not given) | IC50 (Adrenergic receptor beta): 0.0013 µg/mL (≈ 0.00472 µM) |
| > 310 | Not Active | OC(COc1cccc2c1C[C@H](O)[C@H](O)C2)CN1CCN(c2ccccn2)CC1 (stereo not given in full) |  |
| 310 | 0.02 µg/mL (≈ 0.0646 µM) | CC(C)(C)NCC(O)COc1cccc2c1CC[C@@H](O)[C@@H]2O (relative stereo) |  |
| 10 | 0.01 µg/mL (≈ 0.0341 µM) | CC(C)(C)NCC(O)COc1ccc(O)c2c1CCCC2 (stereo not given) |  |
| 3.1 | 0.005 µg/mL (≈ 0.0179 µM) | CC(C)NCC(O)COc1cccc2c1CC(O)CC2 (stereo not given) |  |
| > 1000 | 0.05 µg/mL (≈ 0.169 µM) | CC(C)NCC(O)COc1cccc2c1C[C@H](O)[C@@H](O)C2 (relative stereo) |  |
| 10 | 0.004 µg/mL (≈ 0.0143 µM) | CC(C)NCC(O)COc1ccc(O)c2c1CCCC2 (stereo not given) |  |
| > 1000 | 0.07 µg/mL (≈ 0.168 µM) | COc1ccc(CCNCC(O)COc2cccc3c2C[C@H](O)[C@H](O)C3)cc1OC (stereo not given in full) |  |
| 310 | 80 µg/mL (≈ 208 µM) | CC(C)N(Cc1ccccc1)CC(O)COc1cccc2c1C[C@H](O)[C@H](O)C2 (stereo not given in full) |  |
|  |  | COc1ccccc1N1CCN(CC(O)COc2cccc3c2C[C@H](O)[C@H](O)C3)CC1 (stereo not given in full) | IC50 (Adrenergic receptor beta): 0.46 µg/mL (≈ 1.07 µM) |
| > 1000 | 10 µg/mL (≈ 32.3 µM) | CC(C)(C)NCC(O)COc1ccc2c(c1)C[C@@H](O)[C@@H](O)C2 (relative stereo) |  |

| Activity [1] [µg/mL] | IC50 [2] | SMILES | other results |
| --- | --- | --- | --- |
| > 1000 | Not Active | CN(CC(O)COc1cccc2c1C[C@H](O)[C@H](O)C2)C(C)(C)C (stereo not given in full) |  |
|  |  | Oc1cccc2c1CCC=C2 | Retention_time [4]: 37 min |
|  | 0.086 µg/mL | CC(C)(C)NCC(O)COc1ccc(O)c2c1C[C@@H](O)[C@@H](O)C2.Cl (relative stereo) | Activity [5]: Non-toxic; inhibition (INH) [6]: 10% |
| 3.1 | 0.006 µg/mL (≈ 0.0216 µM) | CC(C)NCC(O)COc1cccc2c1CCC(=O)C2 (stereo not given) |  |
|  |  | CCCCNCC(O)COc1cccc2c1C[C@H](O)[C@H](O)C2 (stereo not given in full) | IC50 (Adrenergic receptor beta): 0.44 µg/mL (≈ 1.42 µM) |
| 10 | 0.8 µg/mL | CO[C@@H]1c2c(cccc2OCC(O)CNC(C)C)CC[C@@H]1O.O=C(O)C(=O)O (relative stereo) |  |
|  |  | Oc1cccc2c1C=CCC2 | Retention_time [4]: 35 min |
| 31 | 0.012 µg/mL (≈ 0.0433 µM) | CC(C)NCC(O)COc1cccc2c1CC1OC1C2 (stereo not given) |  |
| > 1000 | 3.8 µg/mL | Cl.NCC(O)COc1cccc2c1C[C@H](O)[C@H](O)C2 (stereo not given in full) |  |
| 31 | 0.002 µg/mL | CC(C)NCC(O)COc1cccc2c1CCC(O)C2.O=C(O)C(=O)O (stereo not given) |  |
| 1000 | 0.63 µg/mL | CC(C)(C)[N+](C)(C)CC(O)COc1cccc2c1C[C@H](O)[C@H](O)C2.[I-] (stereo not given in full) |  |
| > 1000 | 0.015 µg/mL (≈ 0.0485 µM) | CC(C)(C)NCC(O)COc1cccc2c1C[C@H](O)[C@@H](O)C2 (relative stereo) |  |
| 3.1 | 0.024 µg/mL (≈ 0.0598 µM) | COc1ccc(CCNCC(O)COc2ccc(O)c3c2CCCC3)cc1OC (stereo not given) |  |
| 1 | 0.006 µg/mL (≈ 0.0206 µM) | CC(C)(C)NCC(O)COc1cccc2c1CCCC2=O (stereo not given) [BUNOLOL] |  |
| 10 | 0.1 µg/mL (≈ 0.323 µM) | CC(C)(C)NCC(O)COc1cc(O)c(O)c2c1CCCC2 (stereo not given) |  |
| 100 | 0.5 µg/mL (≈ 1.4 µM) | OC(CNCCc1ccccc1)COc1cccc2c1C[C@H](O)[C@H](O)C2 (stereo not given in full) |  |
| 1 | 0.001 µg/mL (≈ 0.00383 µM) | CC(C)NCC(O)COc1cccc2c1CC=CC2 (stereo not given) |  |
| 31 | 16 µg/mL (≈ 49.5 µM) | CC(O)(CNC(C)(C)C)COc1cccc2c1C[C@H](O)[C@H](O)C2 (stereo not given in full) |  |
| > 1000 | 0.03 µg/mL (≈ 0.097 µM) | CC(C)(C)NCC(O)COc1cccc2c1C[C@@H](O)[C@@H](O)C2 (relative stereo) |  |
| 3.1 |  | C=CCc1ccc(OCCNCC(O)COc2cccc3c2C[C@H](O)[C@H](O)C3)c(OC)c1 (stereo not given in full) | IC50 (Adrenergic receptor beta): 1.5 µg/mL (≈ 3.38 µM) |
| > 1000 | 0.1 µg/mL (≈ 0.339 µM) | CC(C)NCC(O)COc1cccc2c1C[C@@H](O)[C@@H](O)C2 (relative stereo) |  |
| 100 | 1 µg/mL (≈ 2.91 µM) | OC(CNCc1ccccc1)COc1cccc2c1C[C@H](O)[C@H](O)C2 (stereo not given in full) |  |
|  |  | Oc1cccc2c1CCCC2 | Retention_time [4]: 37.5 min |
| 31 | 0.31 µg/mL (≈ 0.743 µM) | CCOc1ccccc1OCCNCC(O)COc1cccc2c1C[C@H](O)[C@H](O)C2 (stereo not given in full) |  |
| > 1000 |  | CCN(CC(O)COc1cccc2c1C[C@H](O)[C@H](O)C2)C(C)(C)C (stereo not given in full) |  |
| 100 | 0.11 µg/mL (≈ 0.372 µM) | CC(C)NCC(O)COc1cc(O)c(O)c2c1CCCC2 (stereo not given) |  |
